For this test, the system named is B. longum AH1206. In words: Antibiotic sensitivity, minimum inhibitory concentration (MIC). Conditions: antibiotic against B. longum AH1206; unit not given.
In the case of `CCC[C@@H]1C[C@@H](C(=O)N[C@@H]([C@H]2O[C@H](SC)[C@H](O)[C@@H](O)[C@H]2O)[C@H](C)Cl)N(C)C1` [clindamycin], the “minimum inhibitory concentration (MIC)” value is listed as 0.32.
In the case of `Cc1ncc([N+](=O)[O-])n1CCO` [metronidazole] it was 0.38.
In the case of `CN[C@H](CC(C)C)C(=O)N[C@H]1C(=O)N[C@@H](CC(N)=O)C(=O)N[C@H]2C(=O)N[C@H]3C(=O)N[C@H](C(=O)N[C@H](C(=O)O)c4cc(O)cc(O)c4-c4cc3ccc4O)[C@H](O)c3ccc(c(Cl)c3)Oc3cc2cc(c3O[C@@H]2O[C@H](CO)[C@@H](O)[C@H](O)[C@H]2O[C@H]2C[C@](C)(N)[C@H](O)[C@H](C)O2)Oc2ccc(cc2Cl)[C@H]1O` [vancomycin] it was 0.75.
